The record followed here is paper PMC6934184, “Selective DNA-PKcs inhibition extends the therapeutic index of localized radiotherapy and chemotherapy” (The Journal of Clinical Investigation, 2019).

The assay addresses T1, CDK16 (PCTK1)/cyclin Y (Homo sapiens, UniProt Q00536).
T1 construct: purchased Thermo Fisher Scientific (Life Technologies) SelectScreen
The assay is described as follows: SelectScreen LanthaScreen. Type of assay: binding. Particulars: read-out: % displacement. In short, it runs like this: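 NU5455 was profiled across the SelectScreen Broad panel of kinase activity and binding assays. Z'LYTE reactions such as CSF1R ran at apparent Km ATP, while the Adapta CAMK1 assay used ATP listed as 10. Values are given as percent.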

Each structure is given as a SMILES string.

T1 sequence (Q00536 whole entry): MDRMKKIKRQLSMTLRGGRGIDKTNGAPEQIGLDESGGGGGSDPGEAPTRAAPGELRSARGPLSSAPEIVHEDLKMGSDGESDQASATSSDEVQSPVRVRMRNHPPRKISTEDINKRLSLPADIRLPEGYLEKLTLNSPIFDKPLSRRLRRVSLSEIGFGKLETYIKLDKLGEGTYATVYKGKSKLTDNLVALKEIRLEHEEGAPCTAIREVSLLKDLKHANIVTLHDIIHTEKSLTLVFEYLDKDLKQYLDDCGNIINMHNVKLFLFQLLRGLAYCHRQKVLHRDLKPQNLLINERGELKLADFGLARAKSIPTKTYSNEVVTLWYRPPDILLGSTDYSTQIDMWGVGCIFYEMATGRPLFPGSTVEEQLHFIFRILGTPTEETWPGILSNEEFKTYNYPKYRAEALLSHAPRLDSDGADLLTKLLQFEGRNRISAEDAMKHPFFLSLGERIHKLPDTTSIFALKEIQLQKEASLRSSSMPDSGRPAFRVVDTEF
T1 sequence (Q8ND76 whole entry partner): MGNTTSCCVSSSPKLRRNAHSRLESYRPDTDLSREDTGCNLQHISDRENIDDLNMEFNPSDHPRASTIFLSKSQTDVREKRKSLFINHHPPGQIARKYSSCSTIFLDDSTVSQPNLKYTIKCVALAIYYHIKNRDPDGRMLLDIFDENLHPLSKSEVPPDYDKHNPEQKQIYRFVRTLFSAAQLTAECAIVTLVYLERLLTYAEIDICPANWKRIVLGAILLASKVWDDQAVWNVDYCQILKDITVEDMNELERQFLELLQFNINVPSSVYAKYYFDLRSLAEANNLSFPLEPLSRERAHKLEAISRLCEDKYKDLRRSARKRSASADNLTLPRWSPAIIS

As to `CN(C(=O)CN1CCOCC1)c1ccc2sc3c(-c4cccc5c(=O)cc(N6CC7CCC(C6)O7)oc45)cccc3c2c1` [NU5455], the inhibition at 1 µM came to 7%.
